The results in this text go back to PubChem BioAssay (NCI).

The structures appear in SMILES notation.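 Compound exposure: 48 hours, 5 concentrations, 96-well plates. Abbreviation: GI50, concentration required for 50% inhibition of growth. TGI: concentration producing complete growth inhibition.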

What all share (assay): NCI anticancer screen, dose series, 48 h
Experiment [1] concerns CAKI-1 renal.
Experiment [2] concerns HCT-116 colon.
For experiment [3], the system named is K-562 leukemia.
Experiment [4] deals with MALME-3M melanoma.
Experiment [5] deals with SK-MEL-2 melanoma.
For experiment [6], the system named is SNB-75 CNS.
In experiment [7] the test system is SR leukemia.
Experiment [8] has as its system TK-10 renal.
Experiment [9] relates to UACC-257 melanoma.
For experiment [10], the system named is PC-3 prostate.

Take `O=C(/C(=C/c1ccccc1)c1ccccc1)N1c2ccccc2CC1c1c[nH]c2ccccc12` (configuration not stated): the TGI in experiment [1] is > 100 µM; in [2], > 100 µM; in [3] it was > 100 µM; in experiment [4], > 100 µM; in experiment [5], 81.9 µM; in experiment [6] it was > 100 µM. Moreover, the TGI in experiment [7], in [8] and in experiment [9] was > 100 µM in each case.
As to `COc1ccc2c(c1)OCCC1=C2SCC2(C)CCN=C12` (configuration not stated), the TGI in experiment [2], in experiment [3], in [6] and in experiment [8] was > 100 µM in each case.
As to `C#CCN(C)C(=O)N(CC#C)N=O`, the TGI in experiment [2], in experiment [3], in experiment [4], in experiment [5], in experiment [6] and in [8] was > 100 µM each time. In addition, in experiment [9], the TGI was > 100 µM.
As to `CN(C)CCNc1nc(-c2cccs2)cc(-c2cccs2)n1`, the TGI in experiment [2] worked out at 23.4 µM; in experiment [3], 36.5 µM; in experiment [4] it was 30.9 µM; in experiment [5], 32.9 µM; in experiment [6] it was 68.2 µM; in [7] it was 15.4 µM. Further, the TGI was determined as 29 µM in experiment [8] and 24.2 µM in experiment [9].
Consider `NS(=O)(=O)c1ccc(NC(=O)COC(=O)c2cccc3c(=O)c4ccccc4[nH]c23)cc1`, for which the TGI was > 100 µM in experiment [1]; > 74.9 µM in [2]; > 100 µM in experiment [3]; 50.5 µM in [4]; 69.8 µM in [5]; 38.5 µM in experiment [6]. Also, the values for the TGI in experiment [7], in experiment [8] and in experiment [9] were 19.7 µM, 77.1 µM and > 100 µM, respectively.
In the case of `COc1ccc(C2=NOP(c3ccccc3)(c3ccccc3)(c3ccccc3)C2)cc1`, the TGI in [1] is > 64 µM; in experiment [2], 21.4 µM; in experiment [3], 31.4 µM; in experiment [4], 50.9 µM; in experiment [5], > 60 µM; in experiment [6], > 89.4 µM. For the same compound, the figures for the TGI in experiment [7], in experiment [8] and in experiment [9] were 34.9 µM, > 100 µM and 99.2 µM, respectively.
As for `COc1ccc2nc3cccc(C(=O)NCCN(C)C)c3nc2c1`, the TGI in [1] was > 20.9 µM; in experiment [2], 2.6 µM; in experiment [3] it was 6.94 µM; in experiment [4] it was 2.69 µM; in experiment [5], 3.68 µM; in experiment [6], 21.6 µM. Further, the TGI was > 100 µM in experiment [7], 8.6 µM in experiment [8] and 7.74 µM in experiment [9].
For `CCc1nc(-n2c(-c3ccccc3)nc3ccccc3c2=O)nc(N)c1-c1ccc(Cl)cc1`, the GI50 in [1] was 14.7 µM; in experiment [2] it was 3.28 µM; in [3], 3.06 µM; in experiment [4], 23.9 µM; in experiment [10], 5.64 µM; in experiment [6] it was 48.2 µM. Further, the GI50 was 23.1 µM in experiment [8] and 40.3 µM in experiment [9]. Further, the TGI was 41 µM in experiment [1]; > 100 µM in experiment [2]; > 100 µM in experiment [3]; > 100 µM in experiment [4]; 90.6 µM in experiment [10]; > 100 µM in experiment [6]. For the same compound, the TGI in experiment [8] and in experiment [9] was > 100 µM each time.
On to `C[n+]1c(N)n(C(=O)OCc2ccccc2)c(=O)c2c1ncn2C(=O)OCc1ccccc1`, for which the TGI in experiment [1] is > 100 µM; in experiment [2], > 100 µM; in [3] it was > 100 µM; in experiment [4], > 100 µM; in experiment [5] it was > 100 µM; in experiment [6], 65.9 µM. Further, the TGI in experiment [8] and in [9] was > 100 µM each time.
In the case of `CC(=O)N1CCN(CCOc2ccc(C3CCN(C4=Nn5c(nnc5C(F)(F)F)CC4)CC3)cc2)CC1`, the GI50 in experiment [1] is 3.27 µM; in experiment [2], 15.7 µM; in experiment [3], 8.25 µM; in experiment [4], 9.89 µM; in experiment [10], 7.87 µM; in experiment [5] it was 33.7 µM. The GI50 in experiment [6] is 3.12 µM; in experiment [8], 7.31 µM; in experiment [9], 26 µM. Also, the TGI in [1] was > 100 µM; in experiment [2], > 100 µM; in [3] it was > 100 µM; in [4], 99.6 µM; in experiment [10] it was > 100 µM; in experiment [5] it was > 100 µM. The TGI in experiment [6], in experiment [8] and in [9] was > 100 µM in each case.
Turning to `CC1=C(C(=O)Nc2ccccc2)C(c2ccc(C(C)C)cc2)C(C(=O)Nc2ccccc2)=C(C)N1`, the TGI in experiment [1] is > 100 µM; in experiment [2] it was 27 µM; in experiment [3], 54.9 µM; in [4], 30.2 µM; in experiment [5], 31.2 µM; in experiment [6] it was 99.3 µM. In addition, the TGI was 55.5 µM in experiment [7] and > 100 µM in experiment [8].
As to `Cc1ccc(NC(=O)CCC(=O)C(C#N)c2ccccc2)cc1C` (configuration not stated), the TGI in [1], in [2], in experiment [3], in [4], in [5] and in [8] was > 100 µM each time. In addition, the TGI in [9] was > 100 µM.
`CC(=O)O[C@H]1C=CC23OC(=O)[C@]1(C)[C@H]2[C@H](C(=O)O)C12CC(=O)[C@@](CO)(CC[C@H]13)C2`: the TGI in experiment [1], in experiment [2], in experiment [3], in [5], in experiment [7] and in experiment [8] was > 100 µM in each case. In addition, in experiment [9], the TGI was > 100 µM.
Consider `C=CCCC(=O)N1C=CC(=O)[C@H](O)[C@@H]1/C=C/c1ccccc1`, for which the GI50 was 25.1 µM in experiment [1]; 6.24 µM in experiment [2]; 9.3 µM in [3]; 9.61 µM in experiment [4]; > 32.5 µM in experiment [5]; 27.4 µM in [6]. The GI50 in experiment [7] was 4.28 µM; in experiment [8] it was 21.5 µM; in [9], 18 µM. In addition, the TGI in experiment [1], in [2], in experiment [3], in [4], in [5] and in [6] was > 32.5 µM throughout. Moreover, the TGI in [7], in experiment [8] and in [9] was > 32.5 µM in each case.
Consider `NCP(=O)(O)OCC(=O)O`, for which the TGI in experiment [1], in experiment [2], in experiment [3], in experiment [4], in experiment [5] and in experiment [6] was > 100 µM each time. Besides, the TGI in experiment [7], in experiment [8] and in experiment [9] was > 100 µM throughout.
`CC(C)(C)C(=O)OCc1nc2cc3c(cc2c(=O)[nH]1)CCC3=O`: the GI50 in experiment [1], in experiment [2], in experiment [3], in experiment [4], in experiment [10] and in experiment [5] was > 100 µM throughout. Also, the GI50 in experiment [6], in experiment [8] and in [9] was > 100 µM each time. In addition, the TGI in experiment [1], in [2], in experiment [3], in experiment [4], in experiment [10] and in [5] was > 100 µM in each case. Further, the TGI in [6], in experiment [8] and in experiment [9] was > 100 µM throughout.
On to `N#Cc1cccc(OCc2ccccc2COc2cccc(C#N)c2)c1`, for which the GI50 is 11.1 µM in experiment [1]; 22 µM in experiment [2]; 64.5 µM in [3]; 4.02 µM in [4]; 25.5 µM in experiment [10]; > 100 µM in experiment [5]. The GI50 in experiment [6] is 29.7 µM; in experiment [8], 11.8 µM; in [9] it was > 100 µM. For the same compound, the TGI in experiment [1] is 25.1 µM; in experiment [2], 93.3 µM; in [3], > 100 µM; in experiment [4] it was 38 µM; in experiment [10], > 100 µM; in experiment [5] it was > 100 µM. Moreover, the figures for the TGI in [6], in [8] and in [9] were 70.4 µM, 29.5 µM and > 100 µM, respectively.
Consider `Cn1cc(NC(=O)c2cc(NC(=O)CCCCCCC(=O)Nc3cc(C(=O)Nc4cc(C(=O)NCCC(=N)N)n(C)c4)n(C)c3)cn2C)cc1C(=O)NCCC(=N)N`, for which the TGI in experiment [1] is 89.7 µM; in experiment [2], 41.6 µM; in experiment [3], > 100 µM; in experiment [4], 12.1 µM; in experiment [6], 38.6 µM; in experiment [8] it was 72.9 µM. Besides, in [9], the TGI was found to be 5.98 µM.
As to `c1ccc2nc(OCCN3CC3)ccc2c1`, the GI50 in experiment [1] is 9.2 µM; in [2] it was 2.39 µM; in experiment [3], 3.06 µM; in experiment [4], 16.6 µM; in experiment [10], 10.4 µM; in experiment [5] it was 13.5 µM. Also, the values for the GI50 in experiment [6], in [8] and in [9] were 16.9 µM, 4.89 µM and 16.5 µM, respectively. Moreover, the TGI in experiment [1] amounted to 28.8 µM; in experiment [2], 15.5 µM; in [3], 24 µM; in experiment [4], 43.6 µM; in experiment [10], 25.2 µM; in experiment [5] it was 31.6 µM. The TGI in [6] is 35.2 µM; in [8] it was 23.1 µM; in experiment [9], 32.8 µM.
As to `Nc1ccc(C(=O)N/C(=C\c2cccc([N+](=O)[O-])c2)c2nc3c4c(ccc3[nH]2)C(=O)c2ccccc2C4=O)cc1`, the TGI in [1] was > 100 µM; in [2], > 100 µM; in experiment [3], > 100 µM; in experiment [4], > 100 µM; in [5] it was > 100 µM; in [6], 17.8 µM. Moreover, the TGI in experiment [8] was 77 µM; in [9], > 100 µM.
`CN(C)CC1CCCC/C1=N/OC(=O)c1ccc(Cl)c(Cl)c1` (configuration not stated): the TGI in [1], in experiment [2], in [3], in experiment [4], in experiment [5] and in [6] was > 100 µM in each case. Moreover, the TGI in experiment [7], in experiment [8] and in experiment [9] was > 100 µM throughout.
As to `COC(=O)C1CC(C(=O)OC)c2nc3cc(C)c(C)cc3nc21` (configuration not stated), the TGI in experiment [1], in experiment [3], in experiment [4], in [5], in experiment [6] and in experiment [8] was > 100 µM each time. Also, the TGI in experiment [9] is > 100 µM.
In the case of `CCOC(=S)SCN1C(=O)c2ccccc2S1(=O)=O`, the GI50 in experiment [1] was 13 µM; in [2] it was 13.6 µM; in [3], 35.7 µM; in [4], 1.94 µM; in experiment [10], 33 µM; in [5], 44.5 µM. The GI50 in [6] is 4.68 µM; in experiment [8] it was 29.4 µM; in experiment [9] it was 18.5 µM. Also, the TGI in [1] was 27.6 µM; in [2], 26.5 µM; in [3], > 100 µM; in [4], 8.76 µM; in experiment [10], > 100 µM; in experiment [5], > 100 µM. Further, the TGI in experiment [6] was 29.6 µM; in experiment [8] it was > 100 µM; in [9], 55.2 µM.
As to `C1C[OH+]CC[OH+]CC[OH+]CC[OH+]CC[OH+]CC[OH+]1.[Cl-].[Nb+5]`, the GI50 in [1] is > 100 µM; in experiment [2], > 100 µM; in experiment [3], > 100 µM; in experiment [4], > 100 µM; in experiment [5], > 100 µM; in experiment [6] it was 39.6 µM. Moreover, the GI50 in experiment [8] and in experiment [9] was > 100 µM in each case. Moreover, the TGI in experiment [1], in experiment [2], in experiment [3], in [4], in experiment [5] and in experiment [6] was > 100 µM each time. In addition, the TGI in experiment [8] and in experiment [9] was > 100 µM throughout.
Regarding `OCC(O)C(OC1OC(CO)C(O)C(O)C1O)c1nn(-c2ccccc2)c2nc3cc(Cl)ccc3nc12` (configuration not stated), the TGI in experiment [2], in [3], in experiment [4], in experiment [6], in [7] and in [8] was > 100 µM throughout. Besides, in experiment [9], the TGI was > 100 µM.
